Experimental data: ChEMBL document CHEMBL1121759, “Aporphines, 36. Dopamine receptor interactions of trihydroxyaporphines. Synthesis, radioreceptor binding, and striatal adenylate cyclase stimulation of 2,10,11-trihydroxyaporphines in comparison with other hydroxylated aporphines” (J Med Chem, 1981)
Calls of active or inactive are those of the source. The calls are words filed in the database; no cut-off is given here.

What follows are molecules tested against T1, Adenylate cyclase (Rattus norvegicus) (UniProt D4A3N4+P26770+Q04400+P26769+Q03343+P40146+Q8CFM9+P21932) (assay: Dopamine sensitive adenylate cyclase activity (stimulation) in homogenates of rat brain striatal tissue was assessed at 50 uM; + = <40% increase of cAMP above basal activity).
Assay type: tissue-based

| SMILES | Stimulation |
| --- | --- |
| C#CCN1CCc2cc(O)cc3c2[C@H]1Cc1ccc(O)c(O)c1-3 | Partially active |
| CCCN1CCc2cc(O)cc3c2[C@H]1Cc1ccc(O)c(O)c1-3 | Partially active |
| OCCN1CCc2cccc3c2[C@H]1Cc1ccc(O)c(O)c1-3 | Partially active |
| C=CCN1CCc2cc(O)cc3c2[C@H]1Cc1ccc(O)c(O)c1-3 | Partially active |
| Oc1cc2c3c(c1)-c1c(ccc(O)c1O)C[C@H]3NCC2 | Partially active |
| CN1CCc2cccc3c2C1Cc1ccc(O)cc1-3 (stereo not drawn) | Partially active |
| CCCN1CCc2cccc3c2[C@H]1Cc1cccc(O)c1-3 | Partially active |
| CCN1CCc2cc(O)cc3c2[C@H]1Cc1ccc(O)c(O)c1-3 | Partially active |

Each molecule was assayed against T1, Adenylate cyclase (Rattus norvegicus) (assay: Dopamine sensitive adenylate cyclase activity (stimulation) in homogenates of rat brain striatal tissue was assessed at 50 uM of compound; +++ = 61-80% incresae of cAMP above basal activity).
Assay type: tissue-based

| SMILES | Stimulation |
| --- | --- |
| CCCN1CCc2cccc3c2[C@H]1Cc1ccc(O)c(O)c1-3 (stereo in doubt; 1b) | Partially active |
| CN1CCc2cccc3c2[C@H]1Cc1ccc(O)c(O)c1-3 | Partially active |

These molecules were tested against T1, Adenylate cyclase (Rattus norvegicus) (assay: Dopamine sensitive adenylate cyclase activity (stimulation) in homogenates of rat brain striatal tissue was assessed at 50 uM of compound; ++ = 41-60% incresae of cAMP above basal activity).
Assay type: tissue-based

| SMILES | Stimulation |
| --- | --- |
| CCCN1CCc2cccc3c2[C@H]1Cc1ccc(O)c(O)c1-3 (stereo in doubt; 1c) | Active |
| CN1CCc2cc(O)cc3c2[C@H]1Cc1ccc(O)c(O)c1-3 | Active |

These molecules were tested against T1, Adenylate cyclase (Rattus norvegicus) (assay: Dopamine sensitive adenylate cyclase activity (stimulation) in homogenates of rat brain striatal tissue was assessed at 50 uM of compound; Inhibitis the cyclase activity).
Assay type: tissue-based

| SMILES | Stimulation |
| --- | --- |
| Oc1ccc2c(c1O)-c1cccc3c1[C@@H](C2)N(CCCl)CC3 | inactive |
